Measurements reported in patent US8399681B2, “Substituted aminothiazolone indazoles as estrogen related receptor-alpha modulators” (Janssen Pharmaceutica NV, priority 2009, dated 2013).

What follows are compounds tested against T1, ERR1 (also known as ERR-α or ERR-1) (Homo sapiens, UniProt P11474) (assay: TR-FRET assay (disruption of co-activator peptide binding)). Details: 6His-tagged ERR1 LBD, GST-hSRC2 co-activator polypeptide; average of 3 independent experiments.
T1 sequence (P11474 193-421 limits assumed): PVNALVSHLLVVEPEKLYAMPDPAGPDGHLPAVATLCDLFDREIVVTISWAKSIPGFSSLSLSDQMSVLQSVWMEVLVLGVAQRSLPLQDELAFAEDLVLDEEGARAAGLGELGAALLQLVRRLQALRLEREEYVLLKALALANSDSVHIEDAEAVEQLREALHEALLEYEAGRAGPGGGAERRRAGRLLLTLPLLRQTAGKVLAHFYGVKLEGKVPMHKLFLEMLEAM
Format: biochemical
Procedure: Time-Resolved Fluorescence Resonance Energy Transfer (TR-FRET) experiments were performed to examine the functional response of ERR1 (also known as ERR-α or ERR-1) ligands. The TR-FRET assay described herein relied on the conformation of ERR1 for binding to a co-activator peptide: when a test compound binds to ERR1 and alters its conformation, it can disrupt the binding of the co-activator peptide. The components of this homogeneous secondary assay included: the ^6His-tagged-ERR1LBD, a GST-labeled-hSRC2 co-activator polypeptide and a fluorescent donor/acceptor pair from CIS bio international htrf/bioassays (Bedford, Mass.) using both an α-GST Europium Cryptate (Eu) label and an α^6His-XL665 (allophycocyanin) fluorophore.
For TR-FRET measurements, the reaction was buffered in 25 mM Tris pH 8, 2.5 mM Hepes, 20 mM KCl, 1 mM DTT, and 0.05 mg/mL BSA (-lipids). The final concentrations of reagents were 6 nM of ERR1LBD, 6 nM GST-SRC-2 peptide, 30 nM Eu cryptate, and 7.5 nM XL665. Reactions were allowed to reach equilibrium at 25° C. for 4-18 hours before collecting data on the Analyst from LJL Biosystems (Molecular Devices Sunnyvale, Calif.). As a time-resolved method, the samples were excited at […] and emission was collected for 1 ms at both 615 and 665 nm with delays of 400 and 75 μs, respectively. Dose response curves were fitted using a hyperbolic equation and the data reported is the average of 3 independent experiments.
In the case of `NC1CCN(C2=NC(=O)/C(=C/c3ccc4c(cnn4Cc4ccc(Cl)cc4C(F)(F)F)c3)S2)CC1` [Example 57, 2-(4-Amino-piperidin-1-yl)-5-[1-(4-chloro-2-trifluoromethyl-benzyl)-1H-indazol-5-ylmethylene]-thiazol-4-one], the EC50 is reported as 12.1 nM.
Compound `O=C1N=C(N2CCN(CC(F)(F)F)CC2)S/C1=C\c1ccc2c(cnn2Cc2ccc(Cl)cc2C(F)(F)F)c1` [Example 58, 5-[1-(4-Chloro-2-trifluoromethyl-benzyl)-1H-indazol-5-ylmethylene]-2-[4-(2,2,2-trifluoro-ethyl)-piperazin-1-yl]-thiazol-4-one] has an EC50 of 42 nM.
`N[C@@H]1CCCN(C2=NC(=O)/C(=C/c3ccc4c(cnn4Cc4ccc(Cl)cc4C(F)(F)F)c3)S2)C1` [Example 59, 2-(3-(R)-Amino-piperidin-1-yl)-5-[1-(4-chloro-2-trifluoromethyl-benzyl)-1H-indazol-5-ylmethylene]-thiazol-4-one] gave an EC50 of 23 nM.
In the case of `N[C@H]1CCCN(C2=NC(=O)/C(=C/c3ccc4c(cnn4Cc4ccc(Cl)cc4C(F)(F)F)c3)S2)C1` [Example 60, 2-(3-(S)-Amino-piperidin-1-yl)-5-[1-(4-chloro-2-trifluoromethyl-benzyl)-1H-indazol-5-ylmethylene]-thiazol-4-one], the EC50 is reported as 19.7 nM.
`O=C1N=C(N2CCN(CC(F)F)CC2)S/C1=C\c1ccc2c(cnn2Cc2ccc(Cl)cc2C(F)(F)F)c1` [Example 61, 5-[1-(4-Chloro-2-trifluoromethyl-benzyl)-1H-indazol-5-ylmethylene]-2-[4-(2,2-difluoro-ethyl)-piperazin-1-yl]-thiazol-4-one] was tested, and the EC50 was 19.6 nM.
Work on `CCN1CCN(C2=NC(=O)/C(=C/c3ccc4c(cnn4Cc4ccc(Cl)cc4C(F)(F)F)c3)S2)CC1` [Example 63, 5-[1-(4-Chloro-2-trifluoromethyl-benzyl)-1H-indazol-5-ylmethylene]-2-(4-ethyl-piperazin-1-yl)-thiazol-4-one] yielded an EC50 of 54 nM.
Work on `C[C@H]1CN(C2=NC(=O)/C(=C/c3ccc4c(cnn4Cc4ccc(Cl)cc4C(F)(F)F)c3)S2)[C@@H](C)CN1` [Example 65, 5-[1-(4-Chloro-2-trifluoromethyl-benzyl)-1H-indazol-5-ylmethylene]-2-(2-(S),5-(S)-dimethyl-piperazin-1-yl)-thiazol-4-one] yielded an EC50 of 17 nM.
Compound `COCCN1CCN(C2=NC(=O)/C(=C/c3ccc4c(cnn4Cc4ccc(C(F)(F)F)cc4C(F)(F)F)c3)S2)CC1` [Example 66, 5-[1-(2,4-Bis-trifluoromethyl-benzyl)-1H-indazol-5-ylmethylene]-2-[4-(2-methoxy-ethyl)-piperazin-1-yl]-thiazol-4-one] has an EC50 of 24.9 nM.
With `CCN1CCN(C2=NC(=O)/C(=C/c3ccc4c(cnn4Cc4ccc(C(F)(F)F)cc4C(F)(F)F)c3)S2)CC1` [Example 67, 5-[1-(2,4-Bis-trifluoromethyl-benzyl)-1H-indazol-5-ylmethylene]-2-(4-ethyl-piperazin-1-yl)-thiazol-4-one] the EC50 was 21 nM.
`O=C1N=C(N2CC(O)C2)S/C1=C\c1ccc2c(cnn2Cc2ccc(Cl)cc2C(F)(F)F)c1` [Example 68, 5-[1-(4-Chloro-2-trifluoromethyl-benzyl)-1H-indazol-5-ylmethylene]-2-(3-hydroxy-azetidin-1-yl)-thiazol-4-one] showed an EC50 of 9.6 nM.
`O=C1N=C(N2C[C@@H]3C[C@H]2CN3)S/C1=C\c1ccc2c(cnn2Cc2ccc(C(F)(F)F)cc2C(F)(F)F)c1` [Example 69, 5-[1-(2,4-Bis-trifluoromethyl-benzyl)-1H-indazol-5-ylmethylene]-2-(2S,5S-diaza-bicyclo[2.2.1]hept-2-yl)-thiazol-4-one] gave an EC50 of 26 nM.
For `CN1C[C@@H]2C[C@H]1CN2C1=NC(=O)/C(=C/c2ccc3c(cnn3Cc3ccc(C(F)(F)F)cc3C(F)(F)F)c2)S1` [Example 70, 5-[1-(2,4-Bis-trifluoromethyl-benzyl)-1H-indazol-5-ylmethylene]-2-(5-methyl-2S,5S-diaza-bicyclo[2.2.1]hept-2-yl)-thiazol-4-one], the EC50 was 11 nM.
